US11815435B2, “Beta glucan immunopharmacodynamics” (HiberCell, Inc., priority 2017, dated 2023)

Tests used:
Format in all cases: in vivo, human
[1] = tested on: anti-β-glucan antibody (IgG ABA); assay: Anti-β-glucan antibody (ABA) levels in serum by ELISA after IV PGG, Phase I healthy donor trial; conditions: for ABA level changes: single dose PGG IV
Protocol: IPD changes induced by yeast soluble β-glucan were evaluated in a Phase I healthy donor trial, which included three cohorts of 12 healthy human volunteers aged 18-65 years. In Cohort 1, subjects were administered a single dose of 4 mg/kg yeast soluble β-glucan by IV infusion over 2-3 hours. In Cohort 2, subjects were administered 4 mg/kg PGG by IV infusion over 2-3 hours once weekly for 3 weeks. Half of the subjects received premedications which included low dose corticosteroids (4 mg of dexamethasone, PO) and low-dose H1 antagonists (50 mg diphenhydramine.
In Cohort 3, subjects received either 2 mg/kg PGG or 4 mg/kg PGG by IV infusion over 1-2 hours. The subjects were administered either dose of PGG once weekly for 2 weeks, then given a 2 week wash out (no PGG) and finally received one more dose of PGG (week 5). Adverse events and complete blood counts were evaluated. In addition, whole blood and serum was evaluated for the following at various time points post-infusion: PGG binding to immune cells (monocytes, neutrophils, B-cells, DC subsets), complement activation (C5a and Sc5b9), serum cytokine/chemokine levels, IgG ABA levels, flow cytometry of immune cells, circulating immune complex formation and Quantigene analysis of transcriptional profile. Table 1 lists each subject's pre-dose IgG ABA levels, PGG dose and whether they received premedications.
Subjects were stratified/classified into subgroups based on pre-infusion ABA levels. ABA cutoff levels were selected based on prior studies and are only exemplary. Classification may include only 2 subgroups based on an IgG ABA cutoff level of 15 μg/ml, 20 μg/ml, 25, μg/ml, 30 μg/ml, 35 μg/ml, 40 μg/ml, 45 μg/ml or 50 μg/ml. Classification may also include 3, 4, 5 or more subgroups with each subgroup corresponding to a specific IgG ABA level range. For example, a 3 subgroup classification may include a Low-ABA subgroup encompassing ABA level ranges of <15 μg/ml, <20 μg/ml, <25 μg/ml or <30 μg/ml, a Mid-ABA subgroup encompassing a range having a low end ABA level of 20 μg/ml, 25 μg/ml, 30 μg/ml, 35 μg/ml, 40 μg/ml or 45 μg/ml and a high end ABA level of 30 μg/ml, 35 μg/ml, 40 μg/ml, 45 μg/ml, 50 μg/ml or 55 μg/ml, and a High-ABA subgroup encompassing ABA level ranges of >35 μg/ml, >40 μg/ml, >45 μg/ml, >50 μg/ml, >55 μg/ml, >60 μg/ml, >65 μg/ml or >70 μg/ml. As discussed in International Published Application No. WO2015084732A1, various ABA cutoff levels may be used for reasons such as differences in soluble β-glucan immunotherapy treatments and preferences regarding inclusiveness and exclusiveness of subgroups. Here, subjects whose ABA levels were less than 20 μg/ml were considered Low-ABA. Subjects with ABA levels between 20 μg/ml and 50 μg/ml were considered Mid-ABA. Subjects with ABA levels greater than 50 μg/ml were High-ABA. Serum and cellular IPD markers were analyzed pre-infusion, 15 minutes, 30 minutes and 1 hour post-infusion, end of infusion (EOI) and 1 hour, 2 hours, 3 hours, 4 hours, 24 hours, 48 hours and 168 hours after EOI.
ABA levels were then followed in subjects through single and multiple doses of PGG. ABA levels were measured in serum by ELISA, and subjects were placed in subgroups based on pre-infusion ABA levels: Low-ABA (<20 μg/mL), Mid-ABA (20-50 μg/mL) or High-ABA (>50 μg/mL). Whole blood or serum was drawn from the subjects at various time points before and after a single dose (Cohort 1) or multiple weekly doses (Cohorts 2 and 3) of PGG infusion. […] In some cases, such as shown for subject 67 in the Low-ABA subgroup, the increase may lead to a change in subgroup (Low-ABA to Mid-ABA).
Increasing the time between soluble β-glucan doses may not only promote repeated acute IPD responses but also enhance acute IPD responses, which may increase the effectiveness of soluble β-glucan therapy. […]

[2] = tested on: intermediate monocytes; switched memory B cells and plasmablasts; assay: Flow cytometry of PBMC for monocyte populations, activation markers and B cells
Protocol: Here, PBMC were stained with indicating markers and analyzed by flow cytometry. Each of the populations were assessed for expression of activation markers CD86, ICAM-1, HLA-DR and PD-L1 24 hours after infusion. In addition, approximately one week post-infusion, increased switched memory B cells and plasmablasts were detected (data not shown).

[3] = tested on: anti-β-glucan antibody (ABA IgG, ABA IgM); assay: Example 1: IgG and IgM ABA levels in a cancer subject on IVIG, IMPRIME PGG and pembrolizumab; conditions: same subject and regimen
Protocol: Soluble β-glucan immunotherapy was administered to a subject diagnosed with glucaganoma. The subject's ABA level prior to immunotherapy treatment placed them in the Low-ABA subgroup, and therefore, their ABA level was boosted by administration of IVIG. GAMMAGARD at 100 mg/ml was intravenously administered prior to each treatment, which provided 161 μg ABA/ml. […] Each cycle was 3 weeks.

[4] = tested on: MIP-1b, IP-10, IL-1 RA and I-TAC; assay: Example 1: cytokine levels in the cancer subject
Protocol: Cytokine levels were also measured during the immunotherapy treatment. […] In addition, less frequent dosing is more convenient and economical for the subject.

β(1,6)-[poly-(1,3)-D-glucopyranosyl]-poly-β(1,3)-D-glucopyranose [PGG]
ABA levels over the 5 week course of treatment ([1]; Cohort 3: weeks 1, 2, 2 week wash out, week 5 dose, High-, Mid-, Low-ABA subjects): Increases in ABA were seen in all subjects with the largest increase occurring after administration of the week 5 dose | ABA subgroup classification ([1]; Cohort 3 Low-ABA subject, after the last (week 5) dose): converted to the Mid-ABA classification | ABA level changes ([1]; High-ABA (>50 μg/ml) healthy subjects): dropped during infusion with PGG and then rebounded about 48 hours EOI | ABA level changes ([1]; Low-ABA (<20 μg/ml) healthy subjects): essentially unaffected | ABA level changes ([1]; Mid-ABA (20-50 μg/ml) healthy subjects): increased at 48 hours after the EOI | ABA levels after multiple doses ([1]; multiple weekly doses of PGG (Cohorts 2 and 3)): can increase ABA levels for some subjects | appearance of intermediate monocytes and activation markers ([2]; 24 hrs after EOI, High-ABA subjects): a population of intermediate monocytes expressing higher levels of the activation markers CD86, PD-L1 and HLA-DR was observed | switched memory B cells and plasmablasts ([2]; approximately one week post-infusion, data not shown): increased | ABA IgG ([3]; cycle 1, day 2 EOI IMPRIME): 17.9 µg/mL | ABA IgM ([3]; cycle 1, day 2 EOI IMPRIME): 6.0 µg/mL | ABA IgG ([3]; cycle 1, day 3): 14.5 µg/mL | ABA IgM ([3]; cycle 1, day 3): 8.3 µg/mL | ABA IgG ([3]; cycle 1, day 9): 10.2 µg/mL | ABA IgM ([3]; cycle 1, day 9): 10.1 µg/mL | ABA IgG ([3]; cycle 2, day 1 EOI-IMPRIME): 50.4 µg/mL | ABA IgM ([3]; cycle 2, day 1 EOI-IMPRIME): 11.7 µg/mL | ABA IgG ([3]; cycle 2, day 1 pre-IVIG): 22.3 µg/mL | ABA IgM ([3]; cycle 2, day 1 pre-IVIG): 18.5 µg/mL | ABA IgG ([3]; cycle 3, day 1 EOI-IMPRIME): 57.4 µg/mL | ABA IgG ([3]; cycle 3, day 1 pre-IVIG): 21.9 µg/mL | cytokine levels (MIP-1b, IP-10, IL-1 RA, I-TAC) ([4]; cancer subject after conversion to High-ABA group, IMPRIME PGG 4 mg/kg once every 3 weeks): acute IPD responses were seen | recurrence of acute IPD responses ([4]; cancer subject, soluble β-glucan administered once every 3 weeks (SC5b-9 and cytokines)): robust, acute IPD responses occurred with each administration
